Results from patent publication US5618685A, “Activation of herpes simplex virus protease by kosmotropes” (priority 1995, dated 1997).
Counter-ions that a name gives are not always drawn. Like-named read-outs stand apart in the source and are kept apart here.

Assays:
HSV-1 protease [1] = target: T1, HSV-1 protease (Human herpesvirus 1, UniProt P10210); experiment: biochemical
Procedure: For experiments examining anion effects, buffer solutions were prepared with the sodium salt of the anion and the pH was adjusted to 7.5 with concentrated HCl where necessary (i.e., citrate, glutamate, malate). An exception was phosphate, where NaH2 PO4 was prepared in the buffer and the pH adjusted upward with NaOH.
Enzyme activity was measured with the peptide substrates […]-amide (SEQ.ID.NO.:2) and […]-amide (SEQ.ID.NO.:1), using HPLC for the separation of products from substrates as described in Darke et al., 1994, supra. The C-terminal cleavage products of enzymatic hydrolysis are SEKFKMW-amide (SEQ.ID.NO.:3) and […]-amide (SEQ.ID.NO.:4) respectively. Quantitation of the C-terminal cleavage product, containing tryptophan, in the HPLC effluent was with a Hewlett-Packard model 1046A fluorescence detector (excitation at 280 nm, emission at 350 nm). […] Reactions were performed at 37° C. in a pH 7.5 buffer containing 52 mM 4-morpholinoethanesulfonic acid (MES), 52 mM 3-(N-tris(hydroxymethyl)methylamino)-2-hyroxy-propanesulfonic acid (TAPSO) and 100 mM diethanolamine, 1 mM EDTA, 1 mM dithiothreitol, 0.1% bovine serum albumin, and the various additives listed in the Tables. Reactions were initiated by the addition of a stock HSV-1 protease solution (0.625 mg/ml) in the above buffer with no additives to a final concentration of 0.025 mg/ml (0.94 μM) and quenched with the addition of 5% H3 PO4. Activity assays comparing various anion and cosolvents effects were conducted with a substrate concentration of 53 μM. Activity in Tables 1 and 2 is expressed as relative to the case where no additive was present in the reaction mixture.

HSV-1 protease [2] = target: T1, HSV-1 protease; experiment: Susceptibility of HSV-1 protease to trypsin proteolysis (SDS-PAGE); type: biochemical, Herpes Simplex Virus type 1; set-up: Autoprocessing of the precursor to the mature 246 amino acid form of the enzyme; made in house; host or cells: E. coli; conditions: trypsin 0.1 mg/ml, 37° C., 60 min; 0.8M citrate
Procedure: HSV-1 protease was incubated for 60 minutes at 37° C. with or without trypsin, either with or without 0.8M sodium citrate present, as described in Example 3. Samples were analyzed with SDS-PAGE (16% gels) and stained with Coomassie brilliant blue. Lanes 1 and 2, no trypsin added; lanes 3 and 4, trypsin added at 0.1 mg/ml. Lanes 1 and 3, no citrate added; lanes 2 and 4, sodium citrate present at 0.8M during incubation. The arrow on the right indicates the position of 27 kDa, undigested HSV-1 protease. Molecular weight markers are in the leftmost lane, with the corresponding molecular weights marked in kDa.
In accordance with this invention, the sensitivity of native HSV-1 protease to trypsin was examined as a function of kosmotrope concentration. Following treatment of the enzyme with trypsin for 60 minutes, SDS-PAGE was performed to qualitatively examine the extent of trypsin digestion of the HSV-1 protease.
Trypsin treatment of the HSV-1 protease (0.15 mg/ml) was performed with 0.1 mg/ml trypsin at 37° C. for 60 min. Trypsin activity s measurements with the fluorogenic substrate BOC-Val-Pro-Arg-7-amino-4-methylcoumarin were performed at 37° C. After trypsin treatment, samples were boiled with SDS gel sample buffer and small volumes of sodium citrate were added to some samples to equalize the extent of band spreading on the gel. […]

[3] = anion (Na+ salt) 0.2M, 37° C., pH 7.5, substrate 53 μM, relative to no additive, 200000 µM
[4] = anion (Na+ salt) 0.8M, 37° C., pH 7.5, substrate 53 μM, relative to no additive, 800000 µM
[5] = pH 7.5, read-out: Relative activity of HSV-1 protease
[6] = anion (Na+ salt) at ionic strength = 0.8, 37° C., pH 7.5, substrate 53 μM, relative to no additive

T1 sequence (P10210 1-247): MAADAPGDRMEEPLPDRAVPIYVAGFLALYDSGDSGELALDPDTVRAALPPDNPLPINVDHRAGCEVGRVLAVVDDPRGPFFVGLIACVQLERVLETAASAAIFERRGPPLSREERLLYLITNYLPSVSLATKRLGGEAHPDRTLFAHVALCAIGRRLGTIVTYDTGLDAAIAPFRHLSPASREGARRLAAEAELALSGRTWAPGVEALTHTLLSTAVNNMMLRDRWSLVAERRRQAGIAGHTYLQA

For `[O-][Cl+3]([O-])([O-])O` [ClO4^-, perchlorate], the “effect of anion/salt on HSV-1 protease activity (in words)” value (“effect of anion/salt” below) (HSV-1 protease [1]) was “inhibitory”, the “Relative activity of HSV-1 protease” value (HSV-1 protease [1]; [3]) was 0.06 and the “Relative activity of HSV-1 protease” value (HSV-1 protease [1]; [4]) was 0.00.

With `CCO` [Ethanol] the “effect of co-solvent on HSV-1 protease activity (in words)” value (from here on “effect of co-solvent”) (HSV-1 protease [1]) was “strongly inactivating”, the activity at 2 % (HSV-1 protease [1]; [5]) was 27% and the activity at 5 % (HSV-1 protease [1]; [5]) was 10%. For the same molecule, the activity at 10 % (HSV-1 protease [1]; [5]) was 0%.

With `CC(=O)O` [CH3 COO^-] the activity at 200000 µM (HSV-1 protease [1]; [5]) was 171% and the activity at 800000 µM (HSV-1 protease [1]; [5]) was 703%.

`O=C(O)C[C@H](O)C(=O)O` [L-malate] was tested, and the activity at 200000 µM (HSV-1 protease [1]; [5]) was 404%.

For `O=P(O)(O)O` [HPO4^2- /PO4^3-, sodium phosphate], the “effect of anion/salt” value (HSV-1 protease [1]) was “strong activation”, the “kcat /KM” value (HSV-1 protease [1]; 0.8M salt present) was 2200 M⁻¹ s⁻¹ and the “Relative activity of HSV-1 protease” value (HSV-1 protease [1]; [3]) was 5.68.

`O=P(O)(O)OP(=O)(O)O` [HP2 O7^3-] was tested, and the “Relative activity of HSV-1 protease” value (HSV-1 protease [1]; [3]) was 7.32.

`F` [F^-] was tested, and the “effect of anion/salt” value (HSV-1 protease [1]) was “some activation” and the “Relative activity of HSV-1 protease” value (HSV-1 protease [1]; [3]) was 6.15.

`N[C@@H](CCC(=O)O)C(=O)O` [L-glutamate] was tested, and the activity at 200000 µM (HSV-1 protease [1]; [5]) was 245%.

With `I` [I^-, iodide] the “effect of anion/salt” value (HSV-1 protease [1]) was “inhibition”, the “Relative activity of HSV-1 protease” value (HSV-1 protease [1]; [3]) was 0.07 and the “Relative activity of HSV-1 protease” value (HSV-1 protease [1]; [4]) was 0.00. The “effect of anion/salt” value (HSV-1 protease [1]; listed as iodide) was “inhibitory”.

With `OC[C@@H](O)[C@@H](O)[C@H](O)[C@@H](O)CO` [Sorbitol] the “effect of co-solvent” value (HSV-1 protease [1]) was “Activation was observed, albeit to a lesser extent”.

With `O=C(O)CCC(=O)O` [Succinate] the “Relative activity of HSV-1 protease” value (HSV-1 protease [1]; pH 7.5) was 6.03 and the activity at 200000 µM (HSV-1 protease [1]; [5]) was 397%.

With `CN(C)C=O` [Dimethyl formamide] the “effect of co-solvent” value (HSV-1 protease [1]) was “strongly inactivating”.

For `N.N.O=S(=O)(O)O` [(NH4)2 SO4], the “effect of anion/salt” value (HSV-1 protease [1]) was “slightly less activating”.

`[Br-].[K+]` [Br^-, bromide] was tested, and the “Relative activity of HSV-1 protease” value (HSV-1 protease [1]; pH 7.5, 200000 µM) was 0.23 and the “Relative activity of HSV-1 protease” value (HSV-1 protease [1]; pH 7.5, 800000 µM) was 0.07.

For `O=C(O)CC(O)(CC(=O)O)C(=O)O` [Citrate, sodium citrate], the “susceptibility of HSV-1 protease to trypsin digestion (in words)” value (HSV-1 protease [2]) was “loss in susceptibility of HSV-1 protease to trypsin digestion”, the “effect of anion/salt” value (HSV-1 protease [1]) was “strong activation” and the “kcat /KM” value (HSV-1 protease [1]) was 4500 M⁻¹ s⁻¹. For the same molecule, the “amount of peptide cleavage product (SEKFKMW-amide) that accumulated in 60 minutes” value (HSV-1 protease [1]; 0.8M sodium citrate in reaction mixture, HSV-1 protease 40 nM) was 100 pmol, the “amount of peptide cleavage product that accumulated in 1 minute” value (HSV-1 protease [1]; 0.8M sodium citrate in reaction mixture, enzyme 0.93 μM) was 100 pmol and the “Relative activity of HSV-1 protease” value (HSV-1 protease [1]; [6]) was 4.16. The fold induction at 800000 µM (HSV-1 protease [1]; pH 7.5, read-out: enhancement of the observed hydrolytic rate (increase of activity)) was 202 and the fold induction at 800000 µM (HSV-1 protease [1]; pH 7.5, read-out: increase of the protease activity (catalytic efficiency)) was 860.

With `O=C(O)CC(C(=O)O)C(O)C(=O)O` (centres unmarked) [Isocitrate] the “Relative activity of HSV-1 protease” value (HSV-1 protease [1]; [6]) was 3.53 and the activity at 200000 µM (HSV-1 protease [1]; [5]) was 772%.

`OCCO` [Ethylene glycol] showed an activity at 2 % (HSV-1 protease [1]; [5]) of 63%, an activity at 5 % (HSV-1 protease [1]; [5]) of 67% and an activity at 10 % (HSV-1 protease [1]; [5]) of 45%.

In the case of `N[C@H](CCC(=O)O)C(=O)O` [D-glutamate], the activity at 200000 µM (HSV-1 protease [1]; [5]) is reported as 290%.

`Cl` [Cl^-, Chloride] was tested, and the “effect of anion/salt” value (HSV-1 protease [1]) was “little effect”, the “Relative activity of HSV-1 protease” value (HSV-1 protease [1]; [3]) was 0.96 and the “Relative activity of HSV-1 protease” value (HSV-1 protease [1]; [4]) was 1.08.

In the case of `OCC(O)CO` [Glycerol], the “effect of co-solvent” value (HSV-1 protease [1]) is reported as “Activation was observed, albeit to a lesser extent”.

Work on `O=C(O)C[C@@H](O)C(=O)O` [D-malate] yielded an activity at 200000 µM (HSV-1 protease [1]; [5]) of 409%.

For `O=S(=O)(O)O` [SO4^2-, sulfate], the “effect of anion/salt” value (HSV-1 protease [1]) was “strong activation” and the “Relative activity of HSV-1 protease” value (HSV-1 protease [1]; [3]) was 4.70.

In the case of `O=C(O)/C=C(/CC(=O)O)C(=O)O` [cis-Aconitrate], the “Relative activity of HSV-1 protease” value (HSV-1 protease [1]; [6]) is reported as 2.40 and the activity at 200000 µM (HSV-1 protease [1]; [5]) is reported as 506%.

Molecule `C[S+](C)[O-]` [Dimethyl sulfoxide] has an inhibition at 2 % (HSV-1 protease [1]; read-out: reduction of HSV protease activity, 2% DMSO with 0.8M sodium citrate present) of 8% and an inhibition at 2 % (HSV-1 protease [1]; read-out: reduction of HSV protease activity, 2% DMSO, no kosmotropic anion) of 37%.
